Test results from PubChem BioAssay (NCI).
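Test compounds were applied to cells in 96-well plates for 48 hours at 5 doses. TGI is the concentration that stops growth completely.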

Key:
Assay in all cases: NCI-60 cell line screen, 48 h
[1] = system: SNB-19 CNS
[2] = system: NCI-H226 lung
[3] = system: HCT-116 colon
[4] = system: A549 NSCLC
[5] = system: 786-0 renal
[6] = system: HL-60(TB) leukemia
[7] = system: OVCAR-3 ovarian
[8] = system: IGROV1 ovarian
[9] = system: NCI-H460 lung
[10] = system: OVCAR-8 ovarian
[11] = system: LXFL 529 NSCLC
[12] = system: EKVX NSCLC
[13] = system: M19-MEL melanoma
[14] = system: NCI-H522 lung
[15] = system: SK-MEL-2 melanoma
[16] = system: SNB-78 CNS
[17] = system: UACC-257 melanoma
[18] = system: SK-MEL-28 melanoma
[19] = system: OVCAR-5 ovarian
[20] = system: CAKI-1 renal
[21] = system: SF-539 CNS
[22] = system: DLD-1 colon
[23] = system: SW-620 colon
[24] = system: SF-295 CNS
[25] = system: MOLT-4 leukemia
[26] = system: SF-268 CNS
[27] = system: RXF 393 renal
[28] = system: DMS 273 small cell lung
[29] = system: KM12 colon
[30] = system: SN12C renal
[31] = system: HOP-18 NSCLC
[32] = system: HCT-15 colon
[33] = system: SNB-75 CNS
[34] = system: K-562 leukemia
[35] = system: KM20L2 colon
[36] = system: HT29 colon
[37] = system: DMS 114 small cell lung
[38] = system: UACC-62 melanoma
[39] = system: XF 498 CNS
[40] = system: A498 renal
[41] = system: RPMI-8226 leukemia
[42] = system: UO-31 renal
[43] = system: SK-OV-3 ovarian
[44] = system: U251 CNS
[45] = system: ACHN renal
[46] = system: NCI-H23 lung
[47] = system: SK-MEL-5 melanoma
[48] = system: RXF-631 renal
[49] = system: HCC-2998 colon
[50] = system: HOP-62 NSCLC
[51] = system: LOX IMVI melanoma
[52] = system: MALME-3M melanoma
[53] = system: TK-10 renal
[54] = system: M14 melanoma
[55] = system: CCRF-CEM leukemia
[56] = system: OVCAR-4 ovarian
[57] = system: HOP-92 NSCLC
[58] = system: COLO 205 colon

Work on COC(=O)c1nc(-c2ccc(Cl)c(Cl)c2)nc2ccccc12 yielded a TGI [1] of 79.5 µM, a TGI [2] of 78.1 µM and a TGI [3] greater than 100 µM. For the same molecule, the TGI [4] was greater than 100 µM, the TGI [5] was 47.8 µM and the TGI [6] was greater than 100 µM. It also gave a TGI [7] greater than 100 µM, a TGI [8] greater than 100 µM and a TGI [9] greater than 100 µM. For the same molecule, the TGI [10] was greater than 100 µM, the TGI [11] was greater than 100 µM and the TGI [12] was greater than 100 µM. The TGI [13] was greater than 100 µM, the TGI [14] was greater than 100 µM and the TGI [15] was greater than 100 µM. It also gave a TGI [16] greater than 100 µM, a TGI [17] greater than 100 µM and a TGI [18] greater than 100 µM. It also gave a TGI [19] greater than 100 µM, a TGI [20] greater than 100 µM and a TGI [21] greater than 61.3 µM. The TGI [22] was greater than 100 µM, the TGI [23] was greater than 100 µM and the TGI [24] was greater than 31.1 µM. It also gave a TGI [25] greater than 100 µM, a TGI [26] greater than 100 µM and a TGI [27] of 42.9 µM. For the same molecule, the TGI [28] was greater than 100 µM, the TGI [29] was greater than 100 µM and the TGI [30] was greater than 100 µM. It also gave a TGI [31] of 4.99 µM, a TGI [32] greater than 100 µM and a TGI [33] of 11.3 µM. It also gave a TGI [34] greater than 100 µM, a TGI [35] greater than 100 µM and a TGI [36] greater than 100 µM. It also gave a TGI [37] greater than 100 µM, a TGI [38] greater than 100 µM and a TGI [39] of 19.7 µM. The TGI [40] was greater than 73.7 µM, the TGI [41] was greater than 100 µM and the TGI [42] was greater than 100 µM. The TGI [43] was 31.2 µM, the TGI [44] was greater than 100 µM and the TGI [45] was greater than 100 µM. It also gave a TGI [46] greater than 100 µM, a TGI [47] greater than 100 µM and a TGI [48] greater than 100 µM. It also gave a TGI [49] greater than 100 µM, a TGI [50] of 62.8 µM and a TGI [51] greater than 100 µM. For the same molecule, the TGI [52] was greater than 100 µM, the TGI [53] was greater than 83.5 µM and the TGI [54] was greater than 100 µM. For the same molecule, the TGI [55] was greater than 100 µM.
With CCCOc1ccc(/C=C\c2cc(OC)c(OC)c(OC)c2)cc1 the TGI [1] was greater than 100 µM, the TGI [2] was greater than 100 µM and the TGI [3] was greater than 100 µM. It also gave a TGI [4] greater than 100 µM, a TGI [5] greater than 100 µM and a TGI [6] greater than 100 µM. The TGI [7] was greater than 100 µM, the TGI [8] was greater than 100 µM and the TGI [9] was greater than 100 µM. For the same molecule, the TGI [10] was greater than 100 µM, the TGI [11] was greater than 100 µM and the TGI [12] was greater than 100 µM. The TGI [13] was greater than 100 µM, the TGI [14] was greater than 100 µM and the TGI [16] was greater than 100 µM. It also gave a TGI [17] greater than 100 µM, a TGI [18] greater than 100 µM and a TGI [19] of 60.9 µM. It also gave a TGI [20] greater than 100 µM, a TGI [56] greater than 100 µM and a TGI [21] greater than 100 µM. The TGI [22] was greater than 100 µM, the TGI [23] was greater than 100 µM and the TGI [24] was greater than 100 µM. The TGI [26] was greater than 100 µM, the TGI [27] was greater than 100 µM and the TGI [28] was greater than 100 µM. It also gave a TGI [29] of 89.5 µM, a TGI [30] greater than 100 µM and a TGI [31] greater than 100 µM. The TGI [32] was greater than 100 µM, the TGI [33] was greater than 100 µM and the TGI [34] was greater than 100 µM. The TGI [35] was greater than 100 µM, the TGI [36] was greater than 100 µM and the TGI [37] was greater than 100 µM. The TGI [38] was greater than 100 µM, the TGI [39] was greater than 100 µM and the TGI [40] was greater than 100 µM. The TGI [41] was greater than 100 µM, the TGI [42] was greater than 100 µM and the TGI [44] was greater than 100 µM. The TGI [57] was greater than 100 µM, the TGI [45] was greater than 100 µM and the TGI [58] was greater than 100 µM. It also gave a TGI [47] of 40.7 µM, a TGI [48] greater than 100 µM and a TGI [50] greater than 100 µM. It also gave a TGI [51] greater than 100 µM, a TGI [52] greater than 100 µM and a TGI [53] greater than 100 µM. The TGI [54] was greater than 100 µM and the TGI [55] was greater than 100 µM.
